Where two headings read alike, the source gives them in different places.
Target: T1, CCR2 (Homo sapiens, UniProt P41597)
T1 construct: (leukophoresis pack); host or cells: human peripheral blood mononuclear cells (PBMCs) from a normal human leukophoresis pack
Experiment: hCCR2 (125-I hMCP-1) small molecule binding assay on human PBMCs
Settings: 125I-MCP-1, human PBMCs
From the text: The CCR2 antagonist activity of compounds of the invention can be reported as the inhibitor concentration required for 50% inhibition (IC50 values) of specific binding in receptor binding assays using 125I-labeled MCP-1, as ligand, and Peripheral Blood Mononuclear Cells (PBMCs) prepared from normal human whole blood via density gradient centrifugation. Specific binding is defined as the total binding (e.g., total cpm on filters) minus the non-specific binding. Non-specific binding is defined as the amount of cpm still defected in the presence of excess unlabeled competitor (e.g., MCP-1),
Human PBMCs were used to test compounds of the invention in a binding assay. For example, 200,000 to 500,000 cells were incubated with 0.1 to 0.2 nM 125I-labeled MCP-1, with or without unlabeled competitor (10 nM MCP-1) or various concentrations of compounds to be tested. 125I-labeled MCP-1, were prepared by suitable methods or purchased from commercial vendors (Perkin Elmer, Boston Mass.). The binding reactions were performed in 50 to 250 μL of a binding buffer consisting of […] pH 7.2, and 0.1% BSA (bovine serum albumin), for 30 minutes at room temperature. The binding reactions were terminated by harvesting the membranes by rapid filtration through glass fiber filters (Perkin Elmer) which was presoaked in 0.3% polyethyleneimine or Phosphate Buffered Saline (PBS). The filters were rinsed with approximately 600 μL of binding buffer containing, 0.5 M NaCl or PBS, then dried, and the amount of bound radioactivity was determined by counting on a Gamma Counter (Perkin Elmer).
More specifically, the following assay may be employed to determine IC50 values for the compounds of the present invention.
hCCR2 (125-I hMCP-1) Small Molecule Binding Assay
Normal human leukophoresis pack contents, available from Biological Specialty Corporation, Colmar, Pa., is diluted 1:1 with PBS, divided into 50 ml conical tubes (preferably less than 40 mls per tube), and underlayed with 10 mls of Ficoll-Paque PLUS (GE Healthcare 17-1440-02). The tubes are centrifuged at 2800 rpm in a clinical centrifuge at room temperature for 30 mins, with no brake. The plasma layer is suctioned, and the buffycoat layer is collected. The collected buffycoat layer is washed twice with 50 mls PBS, and centrifuged at 1400 rpm with brake. The cells are counted. The cells are then diluted to 1×10^7 cells per ml in binding buffer.
96 well plates (such as, for example, Millipore MultiScreen96 plates) are pre-wet with about 100 μl binding buffer (RPMI+0.1% BSA+20 mM HEPES), and blotted just prior to compound addition.
5 μl of 50 μM test compounds in 100% DMSO are dotted onto U-bottom polypropylene 96-well plates.
245 μl per well of Binding Buffer is added to each well for 1 μM compound concentration in 2% DMSO.
50 μl of 1 μM compound is transferred to pre-wetted Millipore plates. 50 μl per well of 1×10E7 cells per ml of freshly prepared human PBMCs are added.
The samples are pre-incubated at room temperature for 30 minutes or 1 hour.
50 μl of 450 pM 125-I-hMCP-1 (Perkin-Elmer/NEN cat#NEX332025UC) is added for a final concentration 125-I-hMCP-1 of 150 pM per well.
The final test compound concentration is 0.333 uM in 150 μl total volume with 0.67% DMSO in all wells. Controls for this assay consist of 0% inhibition and 100% inhibition with 1 uM hMCP-1 (saturating conditions). All wells are run in duplicate. Controls may be in replicates of eight.
The samples are incubated at room temperature for 30 minutes.
The buffer is suctioned through the Millipore plates. The plates are washed three times with Wash Buffer (PRMI+0.1% BSA+20 mM HEPES+ 0.4 M NaC).
The plate underdrain is removed. The plate filters are allowed to dry. The filters are then punched out into plastic tubes.
Finally, the sample is counted an a Gamma Counter.
All IC50 plates were repeated for an n=2.
The following table summarizes the IC50 values identified through the described assay.

[1] = 30 min preincubation, read-out: IC50 (nM) 30 min preinc
[2] = 1 hr preincubation, read-out: IC50 (nM) 1 hr preinc

T1 sequence (P41597 whole entry): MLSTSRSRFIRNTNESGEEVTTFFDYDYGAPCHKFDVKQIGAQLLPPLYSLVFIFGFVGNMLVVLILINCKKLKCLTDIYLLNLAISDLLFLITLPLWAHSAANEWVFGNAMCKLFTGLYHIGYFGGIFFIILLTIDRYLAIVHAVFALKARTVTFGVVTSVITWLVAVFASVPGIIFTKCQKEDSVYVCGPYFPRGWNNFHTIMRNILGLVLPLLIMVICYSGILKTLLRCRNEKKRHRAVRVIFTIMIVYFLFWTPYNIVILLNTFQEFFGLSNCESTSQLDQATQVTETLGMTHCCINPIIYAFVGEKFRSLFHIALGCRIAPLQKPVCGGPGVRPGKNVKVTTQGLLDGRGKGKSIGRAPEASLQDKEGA

| SMILES | IC50 [1] | IC50 [2] |
| --- | --- | --- |
| CO[C@@H]1COCC[C@@H]1N[C@@H]1CC[C@@](C(=O)N2C[C@@H]3C[C@H]2CN3c2cc(C(F)(F)F)cnn2)(C(C)C)C1 [Example 18, 1,5-anhydro-2,3-dideoxy-3-{[(1R,3S)-3-isopropyl-3-({(1S,4S)-5-[5-(trifluoromethyl)pyridazin-3-yl]-2,5-diazabicyclo[2.2.1]hept-2-yl}carbonyl)cyclopentyl]amino}-4-O-methyl-D-erythro-pentitol] | 37.6 nM | 8.5 nM |
| CO[C@@H]1COCC[C@@H]1N[C@@H]1CC[C@@](C(=O)N2C[C@@H]3C[C@H]2CN3c2cc(C(F)(F)F)nc(C(F)(F)F)c2)(C(C)C)C1 [Example 19, 1,5-anhydro-3-{[(1R,3S)-3-isopropyl-3-({(1S,4S)-5-[2,6-bis(trifluoromethyl)pyridin-4-yl]-2,5-diazabicyclo[2.2.1]hept-2-yl}carbonyl)-3-isopropylcyclopentyl]amino}-2,3-dideoxy-4-O-methyl-D-erythro-pentitol] | 20.4 nM | 6.35 nM |
| CO[C@@H]1COCC[C@@H]1N[C@@H]1CC[C@@](C(=O)N2C[C@@H]3C[C@H]2CN3c2nccc(C(F)(F)F)c2F)(C(C)C)C1 [Example 20, 1,5-anhydro-2,3-dideoxy-3-{[(1R,3S)-3-({(1S,4S)-5-[3-fluoro-4-(trifluoromethyl)pyridin-2-yl]-2,5-diazabicyclo[2.2.1]hept-2-yl}carbonyl)-3-isopropylcyclopentyl]amino}-4-O-methyl-D-erythro-pentitol] | 8.59 nM |  |
| CO[C@@H]1COCC[C@@H]1N[C@@H]1CC[C@@](C(=O)N2C[C@@H]3C[C@H]2CN3c2cc(C(F)(F)F)cc(C)n2)(C(C)C)C1 [Example 21, 1,5-anhydro-2,3-dideoxy-3-{[(1R,3S)-3-isopropyl-3-({(1S,4S)-5-[6-methyl-4-(trifluoromethyl)pyridin-2-yl]-2,5-diazabicyclo[2.2.1]hept-2-yl}carbonyl)cyclopentyl]amino}-4-O-methyl-D-erythro-pentitol] |  | 3.1 nM |
| CO[C@@H]1COCC[C@@H]1N[C@@H]1CC[C@@](C(=O)N2C[C@@H]3C[C@H]2CN3c2cccc(C(F)(F)F)c2)(C(C)C)C1 [Example 22, 1,5-anhydro-2,3-dideoxy-3-{[(1R,3S)-3-isopropyl-3-({(1S,4S)-5-[3-(trifluoromethyl)phenyl]-2,5-diazabicyclo[2.2.1]hept-2-yl}carbonyl)cyclopentyl]amino}-4-O-methyl-D-erythro-pentitol] |  | 1.1 nM |
| CO[C@@H]1COCC[C@@H]1N[C@@H]1CC[C@@](C(=O)N2C[C@@H]3C[C@H]2CN3c2cc(F)cc(C(F)(F)F)c2)(C(C)C)C1 [Example 23, 1,5-anhydro-2,3-dideoxy-3-{[(1R,3S)-3-({(1S,4S)-5-[3-fluoro-5-(trifluoromethyl)phenyl]-2,5-diazabicyclo[2.2.1]hept-2-yl}carbonyl)-3-isopropylcyclopentyl]amino}-4-O-methyl-D-erythro-pentitol] |  | 0.94 nM |
| CO[C@@H]1COCC[C@@H]1N[C@@H]1CC[C@](CC(F)F)(C(=O)N2C[C@@H]3C[C@H]2CN3c2cncc(C(F)(F)F)n2)C1 [Example 29, 1,5-anhydro-2,3-dideoxy-3-{[(1R,3S)-3-(2,2-difluoroethyl)-3-({(1S,4S)-5-[6-(trifluoromethyl)pyrazin-2-yl]-2,5-diazabicyclo[2.2.1]hept-2-yl}carbonyl)cyclopentyl]amino}-4-O-methyl-D-erythro-pentitol] |  | 2.75 nM |
| CO[C@@H]1COCC[C@@H]1N[C@@H]1CC[C@](CC(F)(F)F)(C(=O)N2C[C@@H]3C[C@H]2CN3c2cc(C(F)(F)F)ncn2)C1 [Example 32, 1,5-anhydro-2,3-dideoxy-4-O-methyl-3-{[(1R,3S)-3-(2,2,2-trifluoroethyl)-3-({(1S,4S)-5-[6-(trifluoromethyl)pyrimidin-4-yl]-2,5-diazabicyclo[2.2.1]hept-2-yl}carbonyl)cyclopentyl]amino}-D-erythro-pentitol] | 13.8 nM | 11.7 nM |

Further lines, results first:

| IC50 [1] | IC50 [2] | SMILES |
| --- | --- | --- |
| 79.7 nM | 8.87 nM | CO[C@@H]1COCC[C@@H]1N[C@@H]1CC[C@](CC(F)F)(C(=O)N2C[C@@H]3C[C@H]2CN3c2cc(C(F)(F)F)ncn2)C1 [Example 24, 1,5-anhydro-2,3-dideoxy-3-{[(1R,3S)-3-(2,2-difluoroethyl)-3-({(1S,4S)-5-[6-(trifluoromethyl)pyrimidin-4-yl]-2,5-diazabicyclo[2.2.1]hept-2-yl}carbonyl)cyclopentyl]amino}-4-O-methyl-D-erythro-pentitol] |
| 6.58 nM | 0.93 nM | CO[C@@H]1COCC[C@@H]1N[C@@H]1CC[C@](CC(F)F)(C(=O)N2C[C@@H]3C[C@H]2CN3c2cc(C(F)(F)F)ccn2)C1 [Example 25, 1,5-anhydro-2,3-dideoxy-3-{[(1R,3S)-3-(2,2-difluoroethyl)-3-({(1S,4S)-5-[4-(trifluoromethyl)pyridin-2-yl]-2,5-diazabicyclo[2.2.1]hept-2-yl}carbonyl)cyclopentyl]amino}-4-O-methyl-D-erythro-pentitol] |
| 29.3 nM | 7.85 nM | CO[C@@H]1COCC[C@@H]1N[C@@H]1CC[C@](CC(F)F)(C(=O)N2C[C@@H]3C[C@H]2CN3c2ccnc(C(F)(F)F)c2)C1 [Example 26, 1,5-anhydro-2,3-dideoxy-3-{[(1R,3S)-3-(2,2-difluoroethyl)-3-({(1S,4S)-5-[2-(trifluoromethyl)pyridin-4-yl]-2,5-diazabicyclo[2.2.1]hept-2-yl}carbonyl)cyclopentyl]amino}-4-O-methyl-D-erythro-pentitol] |
| 16.2 nM | 2.04 nM | CO[C@@H]1COCC[C@@H]1N[C@@H]1CC[C@](CC(F)F)(C(=O)N2C[C@@H]3C[C@H]2CN3c2nccc(C(F)(F)F)n2)C1 [Example 27, 1,5-anhydro-2,3-dideoxy-3-{[(1R,3S)-3-(2,2-difluoroethyl)-3-({(1S,4S)-5-[4-(trifluoromethyl)pyrimidin-2-yl]-2,5-diazabicyclo[2.2.1]hept-2-yl}carbonyl)cyclopentyl]amino}-4-O-methyl-D-erythro-pentitol] |
|  | 1.88 nM | CO[C@@H]1COCC[C@@H]1N[C@@H]1CC[C@](CC(F)F)(C(=O)N2C[C@@H]3C[C@H]2CN3c2cccc(C(F)(F)F)n2)C1 [Example 28, 1,5-anhydro-2,3-dideoxy-3-{[(1R,3S)-3-(2,2-difluoroethyl)-3-({(1S,4S)-5-[6-(trifluoromethyl)pyridin-2-yl]-2,5-diazabicyclo[2.2.1]hept-2-yl}carbonyl)cyclopentyl]amino}-4-O-methyl-D-erythro-pentitol] |
| 32.9 nM | 11.8 nM | CO[C@@H]1COCC[C@@H]1N[C@@H]1CC[C@](CC(F)F)(C(=O)N2C[C@@H]3C[C@H]2CN3c2ccnc(C(F)(F)F)n2)C1 [Example 30, 1,5-anhydro-2,3-dideoxy-3-{[(1R,3S)-3-(2,2-difluoroethyl)-3-({(1S,4S)-5-[2-(trifluoromethyl)pyrimidin-4-yl]-2,5-diazabicyclo[2.2.1]hept-2-yl}carbonyl)cyclopentyl]amino}-4-O-methyl-D-erythro-pentitol] |
|  | 6.35 nM | CO[C@@H]1COCC[C@@H]1N[C@@H]1CC[C@](CC(F)F)(C(=O)N2C[C@@H]3C[C@H]2CN3c2cc(C(F)(F)F)cnn2)C1 [Example 31, 1,5-anhydro-2,3-dideoxy-3-{[(1R,3S)-3-(2,2-difluoroethyl)-3-({(1S,4S)-5-[5-(trifluoromethyl)pyridazin-3-yl]-2,5-diazabicyclo[2.2.1]hept-2-yl}carbonyl)cyclopentyl]amino}-4-O-methyl-D-erythro-pentitol] |

Reference: patent US8946413B2 (Pfizer Inc., priority 2008, dated 2015)
